Reference: the OPERA property sets (Mansouri et al. 2018)
In brackets after ≈: the same amount, converted by molar mass.

Row | solubility [mM] | solubility (25 °C) [mM] | SMILES | also measured
1 | – | 4.77 (≈ 1500 µg/mL) | Nc1ccc(S(=O)(=O)Nc2ccnn2-c2ccccc2)cc1 | –
2 | 811 (≈ 250000 µg/mL) | – | COc1cc(O)c(C(=O)c2ccccc2)cc1S(=O)(=O)O | –
3 | – | 5.77 (≈ 1000 µg/mL) | O=Nc1c(O)ccc2ccccc12 | –
4 | – | 0.207 (≈ 50 µg/mL) | O=C(N/N=C/c1ccccc1O)c1ccncc1 | –
5 | – | 10.7 (≈ 2000 µg/mL) | NCCNc1cccc2ccccc12 | –

More lines, now with the values behind:

Row | SMILES | solubility [mM] | solubility (25 °C) [mM] | also measured
6 | CCCCOC(=O)C=Cc1ccccc1 | 24.5 (≈ 5000 µg/mL) | – | –
7 | O=C(NCN1CCOCC1)c1cnccn1 | 1500 (≈ 333000 µg/mL) | – | –
8 | CC(=O)NCc1c(I)c(NC(C)=O)c(I)c(C(=O)O)c1I | – | – | solubility (22 °C): 4.78 mM (≈ 3000 µg/mL)
9 | OC[C@H]1O[C@@H](n2cnc3cncnc32)[C@H](O)[C@@H]1O | 396 (≈ 100000 µg/mL) | – | –
10 | CCOCCOC(=O)C=Cc1ccc(OC)cc1 | 2 (≈ 500 µg/mL) | – | –
11 | CC(C)(C)CC(=O)OCC(=O)[C@@]12OC(C)(C)O[C@@H]1C[C@H]1[C@@H]3CCC4=CC(=O)C=C[C@]4(C)[C@@]3(F)[C@@H](O)C[C@@]12C | – | 0.00751 (≈ 4 µg/mL) | –
12 | C#CC(C)(CC)OC(N)=O (stereo not given) | 113 (≈ 16000 µg/mL) | – | –
13 | C=C1C=CC(=O)O1 | 104 (≈ 10000 µg/mL) | – | –
14 | O=NN(CCCl)C(=O)NCCCl | – | 18.7 (≈ 4000 µg/mL) | –
15 | O=C(O)CCC(=O)OOC(=O)CCC(=O)O | 142 (≈ 33300 µg/mL) | – | –
